Measurements as given in a melting point compilation (Tetko et al.; mined from patent text by program, amines drawn as free bases though some values may be those of a salt).

Point of comparison: O=C(NNC(=O)c1ccc([N+](=O)[O-])cc1)c1ccc([N+](=O)[O-])cc1, melting point 294 °C. Against it:
- CCCCCc1scc2c1n(C(=O)OC)c(=O)n2C(=O)OC — lower, 99 to 102 °C
- O=C(NC(NC(=S)Nc1ccccc1)C(F)(F)F)c1ccc(Cl)cc1 (centres undefined) — lower, 198 to 201 °C
- O=C(O)c1cc(-n2c(-c3ccc(O)cc3)cc3c2CCCC3)ccc1O — lower, 214 to 217 °C
- C#CCn1cc(F)c(SC)nc1=O — lower, 101 to 102 °C
- CCNC(=O)c1ccc(F)c(NC(=O)c2cc(C(C)(C)C)nn2CC)c1 — lower, 188 °C
- C#CCn1cc(Cc2ccc(C(=O)OC)cc2OC)c2cc(NC(=O)CC3CCCC3)ccc21 — lower, 160 to 161 °C
- CC1(C)Cc2c(N)ccc(O)c2O1 — lower, 194 °C
- CN(C)CCCNc1c(-c2ccccc2)c(=O)[nH]c2cc(Cl)ccc12 — lower, 177 to 179 °C
- COc1ccc(C#Cc2ccc(OC3CN4CCC3CC4)nn2)cc1 (centres undefined) — lower, 163 to 165 °C
- CN=Cc1ccc2c(Br)c(OC)ccc2c1 — lower, 105 to 107 °C
- O=[N+]([O-])c1cccc(/C=C/c2nc(C3CCCCC3)cs2)c1 — lower, 102 to 104 °C
- CNC(=O)N(O)C(C)c1ccc(OCc2ccccc2)cc1 (centres undefined) — lower, 125 to 128 °C
- COc1cc(C(=O)NC=NC(=O)ON(c2ccc(C)c(NC(=O)c3ccc(C=Cc4ccccc4)cc3)c2)C(C)(C)C)cc(OC)c1OC — lower, 166 °C
- CC1(C)CCc2c(Cl)cc(O)cc21 — lower, 86.5 to 87.5 °C
- CCCNC(=O)c1ccc2c(c1)N(C(C)CN1CCCC1)c1ccccc1S2 (racemic) — lower, 75 to 80 °C
- Cc1cccc(-c2cccc(-c3nc(C)cc(Cl)n3)n2)c1 — lower, 105 °C
- Cc1nc2cccc(OCC(C)(C)NC(=O)c3cccc(O)c3)c2c(N)c1C(=O)O — lower, 195 to 198 °C
- CC(C)(C)c1noc(-c2ncn3c2[C@@H]2CCCN2C(=O)c2c(Cl)cccc2-3)n1 — lower, 222 to 224 °C
- CCCCCNC(=O)c1cc(N2CCN(C(=O)c3ccccc3C(F)(F)F)CC2)nn1C(=O)OCc1ccccc1 — lower, 58 to 61 °C
- CCOC(=O)c1[nH]c2c(NS(=O)(=O)c3cccs3)cccc2c1C — lower, 198 to 199 °C
- COc1nc(OC)c(C(C)C)c(C(=O)c2cc(C)cc(C=O)c2)n1 — lower, 111 to 113 °C
- Cc1ccc(-c2ccc3c(c2)C=C(C(=O)Nc2ccc(CS(=O)Cc4ccccc4)cc2)CCO3)cc1 (centres undefined) — lower, 208 to 209 °C
- Cc1nc(Cl)c2c(n1)CN=C(c1ccccc1)c1cc(Cl)ccc1-2 — lower, 190 to 192 °C
- CCCCCCOc1ccc2[nH]c(C)c(CC(=O)O)c2c1 — lower, 65 to 67 °C
- CCc1ccc(-c2nc(Cl)c3ccccc3n2)cc1 — lower, 75.5 to 76.5 °C
- CCc1cc2c(s1)-n1c(C)nnc1C(CCCCC(=O)O)N=C2c1ccc(Cl)cc1 (centres undefined) — lower, 257 to 260 °C
- Cc1ccnc(N2CCN(C3Sc4ccccc4NC3=O)CC2)c1 (centres undefined) — lower, 245 °C
- CCCN(Cc1ccc(C(=O)N(CCC)C2CCc3ncsc3C2)cc1)C1CCc2ncsc2C1 (centres undefined) — lower, 85 °C
- CC(C#Cc1ccc(C=Cc2ccc(F)cc2)s1)N(O)C(N)=O (centres undefined) — lower, 177 °C
- CN(C)S(=O)(=O)N1CCN(c2ccnc(CO)n2)CC1 — lower, 148 to 149 °C
- COc1ccc(C(C#N)=NOS(=O)(=O)C(C)C)cc1 — lower, 72 °C
- Cc1cn(C)cc1-c1cc2nccnc2[nH]1 — lower, 210 °C
- COC(=O)[C@H]1CC[C@@H](n2nc(-c3c(-c4ccccc4)nn4ccccc34)ccc2=O)[C@H](O)C1 (relative stereo) — lower, 169 to 172 °C
- O=C(N[C@H](Cc1ccccc1)C(=O)O)OCc1cc2cc(-c3ccsc3)ccc2o1 — lower, 169 to 170 °C
- COC(=O)[C@H](Cc1cc(I)c(OCCCBr)c(I)c1)NC(=O)OC(C)(C)C — lower, 102 to 103 °C
- Cn1ncc(C(=O)C2CC2)c1S(N)(=O)=O — lower, 125 to 127 °C
- COC(=O)c1cncn1C1c2ccccc2CSC1(C)C (centres undefined) — lower, 108 to 109 °C
- CCCc1noc(-c2ccc(N3CCN(C(=O)c4ccccc4C(F)(F)F)CC3)nn2)n1 — lower, 226 °C
